What was measured:
[1] = tested on: Bone Morphogenetic Protein 7 (BMP-7) expression in 293S cells transfected with EP2; assay: Kidney regeneration assay: BMP-7 expression by Northern blot in EP2 293S cells; assay type: cell-based, human; details: 10^-6M, RNA at 8, 16 and 24 hours, time dependent
Description: (§1) 293S and EP2 293S cells are grown in Dulbecco's Modified Egale medium (DMEM, Gibco, BRL; Gaithersburg, Md.). […] Cells are harvested and RNA is extracted at 8, 16 and 24 hours. Northern blot analysis of total ([…]) is carried out by probing the blots with ^32P-labeled BMP-7 probe. The blots are normalized for RNA loading by hybridization with ^32P-labeled 18s ribosomal RNA probe. […] Given the known role of BMP-7 in kidney regeneration and the ability of an prostaglandin agonist to induce BMP-7 expression in 293S kidney cells in a time and receptor specific manner indicates a role for prostaglandin agonist in kidney regeneration.

[2] = tested on: Bone Morphogenetic Protein 7 (BMP-7) expression in wild type 293S cells; assay: Kidney regeneration assay: BMP-7 expression by Northern blot in wild type 293S cells; assay type: cell-based, human; details: parental 293S cell line, 10^-6M, RNA at 8, 16 and 24 hours
Description: as §1

Structure (SMILES): CCCCC[C@H](O)/C=C/[C@H]1[C@H](O)CC(=O)[C@@H]1C/C=C\CCCC(=O)O [PGE2, Prostaglandin E2]
- induction of BMP-7 expression [1]: induce the expression of BMP-7
- induction of BMP-7 expression [2]: generally not observed
